This note sets out measurements from article PMC6767265, “Cytotoxicity and Apoptosis Induction of Coumarins and Carbazole Alkaloids from Clausena Harmandiana” (Molecules, 2019).

Values joined by “and” are separate entries in the source; they are usually repeats but may differ in a detail not shown here. Identical values can stand only once. Marks after values point to notes of the source that are not given here.

One assay concerns HepG2 cells. Briefly: Mode of cell death by Annexin V-FITC/PI staining, flow cytometry. Type of assay: cell-based, human. From the text: In this study, double staining of cells by Annexin V-FITC/propidium iodide (PI) was used to differentiate apoptosis from necrosis. The stages of apoptosis can be distinguished from necrotic cell death by flow cytometry using Annexin V-FITC/PI double staining of HepG2 cells. During the early stages of apoptosis, the phosphatidylserine comprising the cell membrane will externalize to be exposed to the surface of apoptotic cells and bind with Annexin V-FITC, showing a cell dot plot in Quadrant 4. The cell dot plot is positively stained with Annexin V-FITC but negatively stained with PI (+/−). When cells are damaged or undergo a late state of apoptosis, cells will lose their membrane integrity, including nuclear membrane integrity, so that PI can pass through the nuclear membrane, showing a cell dot plot in Quadrant 2. […] During cell undergo necrotic cell death, cells are stained and appear in Quadrant 1 (−/+). Normal cells are not stained and appear in Quadrant 3 (−/−). The total apoptotic cell death percentage was counted from the percentage of cells undergoing an early state and late state of apoptosis gathering from Quadrants 4 and 2, while the necrotic cell death percentage was counted from Quadrant 1, as shown in Figure 2.
The Annexin V-FITC and PI apoptosis assay kit (BioLegend, San Diego, CA, USA) was used to determine mode of cell death as per previous report. The HepG2 cells (8 × 10^5 cell/mL) were seeded in a 24-well plate and incubated for 24 h. The compounds at a concentration of 1 x IC50 and 2 x IC50 were added and incubated for 12 and 24 h. After that, cells were washed with PBS and cold BioLegend’s cell staining buffer followed by staining with Annexin V-FITC and PI and cell were incubated in the dark for 15 min. The cells were analyzed by flow cytometry (BD FACSCanto II, BD Biosciences, San Jose, CA, USA) and the percentage of cells in different populations were calculated with FACSDiva software.

A short description of assay [1]: DPPH radical scavenging assay. The settings on record: for DPPH Assay IC50 / IC50: 30 min in the dark, absorbance 517 nm; for DPPH radical scavenging activity classification: classified from IC50 in µg/mL. Type of assay: biochemical. The protocol: The 2,2–diphenyl–1–picrylhydrazyl (DPPH) radical scavenging assay was conducted as per the previous method. Briefly, the stock solutions of 10 mM DPPH was prepared in methanol. The DPPH was mixed with samples (100 µL each) at various concentrations (1−500 µM) in 96 wells plate and incubated for 30 min in a dark condition. The absorbance of DPPH radical was measured at 517 nm using a microplate reader (Tecan, Lyon, France). Trolox was used as a positive control. The half maximum inhibitory concentration (IC50 value) was calculated from the plot of percentage of DDPH radical inhibition versus concentration of samples using the following formula: % DPPH radical inhibition = [(Ab − As)/Ab] × 100,(1) where Ab = absorbance of the reagent blank, and As = absorbance of the sample. Each experiment was done in five replications and results are expressed as average values.

In assay [2] the test system is human colon carcinoma cell line (HCT116). Put plainly: Cell viability assay (neutral red), HCT116. Format: cell-based. The note with it: for IC50: Homo sapiens, HCT-116, 24 h, neutral red, inactive = viability >50% at >100 µM; for Selectivity Index HCT116: cancer cells over noncancerous Vero cells. On the procedure: (§1) The human lung adenocarcinoma cell line (SK-LU-1), human colon carcinoma cell line (HCT116), human hepatocellular carcinoma cell line (HepG2) and noncancerous African green monkey kidney epithelial cell line (Vero) were cultured in Dulbecco’s modified Eagle’s medium (DMEM) supplemented with 10% fetal bovine serum, 100 IU/mL penicillin and […] streptomycin. Cells were incubated at 37 °C with 95% air and 5% CO2 until they reached approximately 80% confluence before use.
(§2) Cell viability assay was assessed by neutral red (NR). Briefly, cells at a density of 3 × 10^4 cells/well were seeded in 96-wells plate and incubated for 24 h. […] After incubation time, cells were washed with PBS. NR reagent (50 µg/mL) was added to each well and incubated for another 2 h. After that, cells were washed with PBS and lyzed with 0.33% HCl in isopropanol. Cisplatin was used as a positive control. The absorbance of NR was detected using microplate reader (Tecan, Lyon, France) at 520 nm. The percentage of cell viability was calculated vis-à-vis the untreated cells and cytotoxicity was expressed as the inhibition concentration at 50% (IC50). The final DMSO concentration was not exceed 0.1%v/v to lessen the cytotoxicity (<10%).

Assay [3] has as its system noncancerous African green monkey kidney epithelial cell line (Vero). Put plainly: Cell viability assay (neutral red), Vero. Format: cell-based. The settings on record: 24 h, inactive = viability >50% at >100 µM. The arrangement: key to IC50 Vero: inactive: Inactive means cell viability percentage was >50% at the maximum concentration used (>100 µM for the compound or >100 µg/mL for the extract). The protocol: as §1
(§3) Cell viability assay was assessed by neutral red (NR). Briefly, cells at a density of 3 × 10^4 cells/well were seeded in 96-wells plate and incubated for 24 h. The sample at concentration, ranging from 10 to 500 µM, were added and incubated for 24 h. After incubation time, cells were washed with PBS. NR reagent (50 µg/mL) was added to each well and incubated for another 2 h. After that, cells were washed with PBS and lyzed with 0.33% HCl in isopropanol. Cisplatin was used as a positive control. The absorbance of NR was detected using microplate reader (Tecan, Lyon, France) at 520 nm. The percentage of cell viability was calculated vis-à-vis the untreated cells and cytotoxicity was expressed as the inhibition concentration at 50% (IC50). The final DMSO concentration was not exceed 0.1%v/v to lessen the cytotoxicity (<10%).

For assay [4], the system named is human hepatocellular carcinoma cell line (HepG2). Put plainly: Cell viability assay (neutral red), HepG2. Type of assay: cell-based. The note with it: for IC50: Homo sapiens, HepG2, 24 h, neutral red; for Selectivity Index HepG2: cancer cells over noncancerous Vero cells. On the procedure:
as §1, §3

Assay [5] is described as follows: Ferric reducing antioxidant power (FRAP) assay. Type of assay: biochemical. The settings on record: 100 µM compound. On the procedure:
FRAP assay was performed following the pervious study with slight modification. FRAP reagent was prepared by mixing 300 mM acetate buffer (pH 3.6), 20 mM ferric chloride solution and 10 mM TPTZ solution in the ratio of 10:1:1 and incubated at 37 °C for 30 min. Then, 150 µL of FRAP reagent was added with 50 µL of the sample (100 µM of isolated compounds or 100 µg/mL of the CH2Cl2 crude extract) in each well of the 96-wells plate. The absorbance was measured at 595 nm using microplate reader (Tecan, Lyon, France). Trolox was used as a positive control. The FRAP value was calculated from the linear equation between the absorbance and ferrous sulfate standard curves (y = 0.0548x + 0.0213, R^2 = 0.9989) and expressed as µM of ferrous sulfate equivalents.

For assay [6], the system named is human lung adenocarcinoma cell line (SK-LU-1). Put plainly: Cell viability assay (neutral red), SK-LU-1. Format: cell-based. The note with it: for IC50: Homo sapiens, SK-LU-1, 24 h, neutral red, inactive = viability >50% at >100 µM; for Selectivity Index SK-LU-1: cancer cells over noncancerous Vero cells. The protocol: as §1, §2

For the molecule `COc1c2c(cc3oc(=O)ccc13)OC(C)(C)C=C2` [Xanthoxyletin (4), xanthoxyletin], the “necrotic cell death percentage (Q1, Annexin V-FITC/PI −/+)” value (“necrotic cell death percentage” below) in the assay with HepG2 cells (HepG2, 1 × IC50, 12 h) is given as 2.5 ± 0.7%; in the assay on HepG2 cells (HepG2, 1 × IC50, 24 h), 1.6 ± 0.9%; with HepG2 cells (HepG2, 2 × IC50, 12 h) it was 2.9 ± 1.2%; in the assay with HepG2 cells (HepG2, 2 × IC50, 24 h), 2.7 ± 1.1%. The “apoptotic cell death percentage (total, Quadrants 4 and 2)” value in the assay with HepG2 cells (HepG2, 1 × IC50, 24 h) was found to be 49.7 ± 1.1%; in the assay with HepG2 cells (HepG2, 2 × IC50, 12 h) it was 49.6 ± 1.2%; with HepG2 cells (HepG2, 2 × IC50, 24 h), 64.2 ± 3.2%. Besides, in assay [1], the “DPPH Assay IC50” value is 63.8 ± 0.8^d µg/mL. The IC50 was 247 ± 3 µM in assay [1], 79.8 ± 2.8 µM in assay [2], 78.2 ± 2.2 µM in assay [4] and 94.4 ± 2.2 µM in assay [6]. Besides, the “DPPH radical scavenging activity classification” value in assay [1] was “low radical scavenger”. For the same molecule, in assay [2], the “Selectivity Index HCT116” value was “(1.3)”. The “IC50 Vero” value in assay [3] was “inactive^cB”. Further, the “Selectivity Index HepG2” value in assay [4] is “(1.3)”. Further, the “FRAP Value” in assay [5] was 5.2 ± 0.3^f µM FeSO4 Equivalents; in assay [5] (listed as xanthoxyletin), 5.2 µM FeSO4 Equivalents. In addition, the “Selectivity Index SK-LU-1” value in assay [6] is listed as “(1.1)”.
Take `C=CC(C)(C)c1cc2c(O)c3c(c(C(C)(C)C=C)c2oc1=O)OC(C)(C)C=C3` [Clausarin (2), clausarin]: in the assay on HepG2 cells (HepG2, 1 × IC50, 12 h), the “apoptotic cell death percentage (total, Quadrants 4 and 2)” value was determined as 44.0 ± 1.2%; the “necrotic cell death percentage” value is recorded as 6.8 ± 1.4%. Also, the “necrotic cell death percentage” value in the assay on HepG2 cells (HepG2, 2 × IC50, 12 h) was found to be 27.4 ± 3.8%. Besides, in assay [1], the “DPPH Assay IC50” value is on record as 2.3 ± 0.3^a µg/mL, the IC50 was found to be 6 ± 0.8 µM and the “DPPH radical scavenging activity classification” value is recorded as “high radical scavenger”. Further, in assay [2], the IC50 was found to be 44.9 ± 1.4 µM and the “Selectivity Index HCT116” value is given as “(1.7)”. Besides, inhibition in assay [3] (Chlorocebus sabaeus, Vero) was half-maximal at 78.2 ± 3 µM (IC50). Besides, in assay [4], the midpoint of inhibition, the IC50, lay at 17.6 ± 2.1 µM and the “Selectivity Index HepG2” value is on record as “(4.4)”. In addition, the “FRAP Value” in assay [5] is given as 45.2 ± 1.0^b µM FeSO4 Equivalents. Moreover, the “FRAP Value” in assay [5] (listed as clausarin) was 45.2 ± 1.0 µM FeSO4 Equivalents and 45.2 µM FeSO4 Equivalents. In assay [6], half-maximal inhibition (IC50) required 6.9 ± 1.6 µM and the “Selectivity Index SK-LU-1” value is given as “(11.3)”.
